{"source": "patent US20180191016A1", "about": "“FLOW BATTERIES INC[…] PHE[…] WITHIN AN AQUEOUS ELECTROLYTE SOLUTION” (LOCKHEED MARTIN ADVANCED ENERGY STORAGE, LLC, priority 2017, published 2018)", "origin": "cited, not measured here", "conditions": "compared to a reversible hydrogen electrode"}
{"smiles": "c1ccc2c(c1)Nc1ccccc1S2", "note": "[phenothiazine]", "values": [{"measurement": "standard reduction potential", "value": "approximately +0.9 V"}]}
